Like-named read-outs stand apart in the source and are kept apart here.
Assays:
Format in all cases: cell-based
[1] = molecular target: Ba/F3-FGFR3-transfected cells (Homo sapiens, UniProt P22607); assay: Ba/F3-FGFR3 (minus IL3) cellular proliferation assay, Alamar Blue; conditions: for BAF3-FGFR 3 (MIN IL3) 96 well pIC50: minus IL3, 96 well; for BAF3-FGFR 3 (MIN IL3) 384 well pIC50: minus IL3, 384 well
Summary of the method: (§1)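 Ba/F3 cells transfected with FGFR3 were exposed to compound in RPMI-1640 with 10% FBS for 24 h at 37 °C, 5% CO2. Alamar Blue (resazurin) was then added for 4 h, and fluorescence was read at ex 540/em 590 nm.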

[2] = test system: Ba/F3-FGFR3-transfected cells in the presence of 10 ng/ml murine IL3; assay: Ba/F3-FGFR3 (plus IL3) cellular proliferation counterscreen, Alamar Blue; conditions: Mus musculus
Summary of the method: as §1

[3] = molecular target: Ba/F3-KDR-transfected cells (Homo sapiens, UniProt P35968); assay: Ba/F3-KDR (minus IL3) cellular proliferation assay, Alamar Blue; conditions: minus IL3
Ba/F3-KDR-transfected cells, sequence (P35968 whole entry, change not shown): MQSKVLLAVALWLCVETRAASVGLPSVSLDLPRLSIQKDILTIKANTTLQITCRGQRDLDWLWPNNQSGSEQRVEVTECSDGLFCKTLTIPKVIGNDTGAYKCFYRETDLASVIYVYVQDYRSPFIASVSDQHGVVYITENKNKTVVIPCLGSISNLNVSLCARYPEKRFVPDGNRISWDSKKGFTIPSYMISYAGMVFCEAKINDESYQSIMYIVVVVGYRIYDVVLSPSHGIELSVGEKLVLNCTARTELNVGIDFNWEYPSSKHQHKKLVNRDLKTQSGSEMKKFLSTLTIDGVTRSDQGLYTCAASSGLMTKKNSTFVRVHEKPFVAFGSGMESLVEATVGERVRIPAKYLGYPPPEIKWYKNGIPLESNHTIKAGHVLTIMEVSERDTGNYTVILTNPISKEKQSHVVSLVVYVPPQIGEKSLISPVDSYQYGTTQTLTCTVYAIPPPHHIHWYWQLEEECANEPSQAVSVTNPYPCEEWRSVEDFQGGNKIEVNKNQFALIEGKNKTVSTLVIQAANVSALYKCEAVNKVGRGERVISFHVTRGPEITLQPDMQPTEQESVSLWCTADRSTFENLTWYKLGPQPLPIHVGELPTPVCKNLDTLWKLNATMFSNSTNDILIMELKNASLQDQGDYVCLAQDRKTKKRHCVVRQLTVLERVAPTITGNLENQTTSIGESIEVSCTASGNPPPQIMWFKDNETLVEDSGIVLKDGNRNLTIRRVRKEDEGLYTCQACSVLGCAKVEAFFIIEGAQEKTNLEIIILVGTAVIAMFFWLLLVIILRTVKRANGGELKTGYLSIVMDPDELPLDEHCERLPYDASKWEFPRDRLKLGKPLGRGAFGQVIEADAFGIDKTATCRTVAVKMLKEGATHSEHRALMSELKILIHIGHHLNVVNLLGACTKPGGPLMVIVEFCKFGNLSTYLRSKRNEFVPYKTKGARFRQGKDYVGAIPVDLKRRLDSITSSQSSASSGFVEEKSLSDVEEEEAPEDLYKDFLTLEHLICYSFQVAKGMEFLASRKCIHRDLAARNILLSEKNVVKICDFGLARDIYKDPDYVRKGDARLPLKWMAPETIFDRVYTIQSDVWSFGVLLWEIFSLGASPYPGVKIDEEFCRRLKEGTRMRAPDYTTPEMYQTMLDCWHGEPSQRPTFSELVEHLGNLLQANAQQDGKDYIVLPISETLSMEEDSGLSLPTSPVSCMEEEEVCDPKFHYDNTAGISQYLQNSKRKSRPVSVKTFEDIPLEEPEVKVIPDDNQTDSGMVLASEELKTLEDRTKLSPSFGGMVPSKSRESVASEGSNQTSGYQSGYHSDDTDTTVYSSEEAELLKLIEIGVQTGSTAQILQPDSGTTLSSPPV
Summary of the method: (§2)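 Ba/F3-KDR cells in phenol red free RPMI-1640 with 10% FBS were exposed to compound for 24 h at 37 °C, 5% CO2. Alamar Blue (resazurin) was then added for 4 h and fluorescence read at ex 540/em 590 nm. The counterscreen ran identically with 10 ng/ml murine IL3.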

[4] = test system: Ba/F3-KDR-transfected cells in the presence of 10 ng/ml murine IL3; assay: Ba/F3-KDR (plus IL3) cellular proliferation counterscreen, Alamar Blue; conditions: Mus musculus, plus 10 ng/ml murine IL3
Summary of the method: as §2

[5] = test system: Ba/F3-Flt3-transfected cells in the presence of 10 ng/ml murine IL3; assay: Ba/F3-Flt3 (plus IL3) cellular proliferation counterscreen, Alamar Blue; conditions: Mus musculus; plus 10 ng/ml murine IL3; read-out: BAF3-FLT3 (PLUS IL3) 96 well pIC50 (converted)
[6] = plus 10 ng/ml murine IL3, 384 well, read-out: BAF3-FGFR 3 (PLUS IL3) 384 well pIC50 (converted)
[7] = plus IL3, 96 well, read-out: BAF3-FGFR 3 (PLUS IL3) 96 well pIC50 (converted)
[8] = read-out: BAF3-KDR (PLUS IL3) 96 well pIC50 (converted)
[9] = read-out: BAF3-KDR (PLUS IL3) 384 well pIC50 (converted)

Ba/F3-FGFR3-transfected cells, sequence (P22607 whole entry, change not shown): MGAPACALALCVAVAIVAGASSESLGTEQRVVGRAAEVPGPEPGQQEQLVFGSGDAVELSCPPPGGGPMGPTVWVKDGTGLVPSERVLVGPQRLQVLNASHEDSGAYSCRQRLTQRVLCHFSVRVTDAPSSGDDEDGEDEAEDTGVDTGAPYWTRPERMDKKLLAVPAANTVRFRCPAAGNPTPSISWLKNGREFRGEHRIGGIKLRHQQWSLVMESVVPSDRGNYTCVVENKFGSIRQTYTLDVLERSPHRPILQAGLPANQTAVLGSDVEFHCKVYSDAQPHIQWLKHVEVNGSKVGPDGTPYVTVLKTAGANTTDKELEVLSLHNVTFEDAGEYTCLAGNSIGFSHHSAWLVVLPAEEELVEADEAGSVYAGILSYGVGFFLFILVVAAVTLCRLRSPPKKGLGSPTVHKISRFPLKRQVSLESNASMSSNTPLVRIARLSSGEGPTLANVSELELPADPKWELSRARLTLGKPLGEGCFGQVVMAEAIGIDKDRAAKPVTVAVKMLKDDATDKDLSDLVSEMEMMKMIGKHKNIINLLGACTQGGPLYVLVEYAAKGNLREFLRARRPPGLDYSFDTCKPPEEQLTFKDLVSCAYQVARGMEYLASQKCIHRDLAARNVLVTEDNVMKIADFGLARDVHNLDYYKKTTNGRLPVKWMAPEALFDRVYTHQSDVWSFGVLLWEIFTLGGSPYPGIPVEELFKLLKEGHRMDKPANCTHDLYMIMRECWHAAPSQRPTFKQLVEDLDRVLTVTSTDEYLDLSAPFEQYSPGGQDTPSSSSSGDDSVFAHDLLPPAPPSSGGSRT

COc1cc(OC)cc(N(CC2CC2)c2ccc3ncc(-n4cnc(C)c4)nc3c2)c1 [Compound 30]
BAF3-FGFR 3 (MIN IL3) 96 well pIC50 [1]: 5.94
BAF3-FGFR 3 (MIN IL3) 384 well pIC50 [1]: 5.51
IC50 [2, 6]: > 10 µM
IC50 [2, 7]: > 10 µM
BAF3-KDR (MIN IL3) 96 well pIC50 [3]: 5.11
BAF3-KDR (MIN IL3) 384 well pIC50 [3]: 5.07
IC50 [4, 8]: > 10 µM
IC50 [4, 9]: > 10 µM
IC50 [5]: > 10 µM

COc1cc(OC)cc(N(CC2CC2)c2ccc3ncc(-c4ccn(CCO)c4)nc3c2)c1 [Compound 56]
IC50 [2, 6]: > 10 µM
IC50 [2, 7]: > 10 µM
BAF3-KDR (MIN IL3) 96 well pIC50 [3]: 5.29
BAF3-KDR (MIN IL3) 384 well pIC50 [3]: ~5
IC50 [4, 8]: > 10 µM
IC50 [4, 9]: > 10 µM
IC50 [5]: > 10 µM

COc1cc(OC)cc(N(CC2CC2)c2ccc3ncc(-n4cncn4)nc3c2)c1 [Compound 50]
BAF3-FGFR 3 (MIN IL3) 96 well pIC50 [1]: <5
BAF3-FGFR 3 (MIN IL3) 384 well pIC50 [1]: <5
IC50 [2, 6]: > 10 µM
IC50 [2, 7]: > 10 µM
BAF3-KDR (MIN IL3) 96 well pIC50 [3]: <5
BAF3-KDR (MIN IL3) 384 well pIC50 [3]: <5
IC50 [4, 8]: > 10 µM
IC50 [4, 9]: > 10 µM
IC50 [5]: > 10 µM

COc1cc(OC)cc(N(CC2CC2)c2ccc3ncc(-c4ccn(C)c4)nc3c2)c1 [Compound 73]
BAF3-KDR (MIN IL3) 96 well pIC50 [3]: <5
BAF3-KDR (MIN IL3) 384 well pIC50 [3]: 5.07
IC50 [5]: > 10 µM

COc1cc(OC)cc(N(CC2CC2)c2ccc3ncc(C(=O)NCc4ccc(F)cc4)nc3c2)c1 [Compound 101]
BAF3-FGFR 3 (MIN IL3) 96 well pIC50 [1]: <5
BAF3-FGFR 3 (MIN IL3) 384 well pIC50 [1]: <5
BAF3-KDR (MIN IL3) 384 well pIC50 [3]: <5
IC50 [5]: > 10 µM

COc1cc(OC)cc(N(CC2CC2)c2ccc3ncc(-c4cn[nH]n4)nc3c2)c1 [Compound 69]
BAF3-FGFR 3 (MIN IL3) 96 well pIC50 [1]: <5
BAF3-FGFR 3 (MIN IL3) 384 well pIC50 [1]: <5
BAF3-KDR (MIN IL3) 96 well pIC50 [3]: <5
BAF3-KDR (MIN IL3) 384 well pIC50 [3]: <5
IC50 [5]: > 10 µM

COc1cc(OC)cc(N(CC2CC2)c2ccc3ncc(-c4cnn(C)n4)nc3c2)c1 [Compound 70]
IC50 [2, 6]: > 10 µM
IC50 [2, 7]: > 10 µM
BAF3-KDR (MIN IL3) 96 well pIC50 [3]: <5
BAF3-KDR (MIN IL3) 384 well pIC50 [3]: <5
IC50 [4, 8]: > 10 µM
IC50 [4, 9]: > 10 µM
IC50 [5]: > 10 µM

COc1cc(OC)cc(N(CC2CC2)c2ccc3ncc(-c4nnnn4C)nc3c2)c1 [Compound 83]
BAF3-FGFR 3 (MIN IL3) 96 well pIC50 [1]: <5
BAF3-FGFR 3 (MIN IL3) 384 well pIC50 [1]: <5
IC50 [2, 6]: > 10 µM
IC50 [2, 7]: > 10 µM
BAF3-KDR (MIN IL3) 96 well pIC50 [3]: <5
BAF3-KDR (MIN IL3) 384 well pIC50 [3]: <5
IC50 [4, 8]: > 10 µM
IC50 [4, 9]: > 10 µM
IC50 [5]: > 10 µM

COc1cc(OC)cc(N(CC2CC2)c2ccc3ncc(-c4ccnn4C)nc3c2)c1 [Compound 18]
IC50 [2, 6]: > 10 µM
IC50 [2, 7]: > 10 µM
BAF3-KDR (MIN IL3) 384 well pIC50 [3]: <5
IC50 [4, 9]: > 10 µM
IC50 [5]: > 10 µM

COc1cc(OC)cc(N(CC2CC2)c2ccc3ncc(C#Cc4ccncc4)nc3c2)c1 [Compound 23]
BAF3-FGFR 3 (MIN IL3) 96 well pIC50 [1]: 5.66
BAF3-FGFR 3 (MIN IL3) 384 well pIC50 [1]: 5.1
BAF3-KDR (MIN IL3) 96 well pIC50 [3]: 5.36
BAF3-KDR (MIN IL3) 384 well pIC50 [3]: <5
IC50 [5]: 5.62 µM

CCOC(=O)c1ncn(-c2cnc3ccc(N(CC4CC4)c4cc(OC)cc(OC)c4)cc3n2)c1C [Compound 65]
BAF3-FGFR 3 (MIN IL3) 96 well pIC50 [1]: 5.08
BAF3-FGFR 3 (MIN IL3) 384 well pIC50 [1]: <5
BAF3-KDR (MIN IL3) 96 well pIC50 [3]: <5
BAF3-KDR (MIN IL3) 384 well pIC50 [3]: <5
IC50 [5]: > 10 µM

COc1cc(OC)cc(N(CC2CC2)c2ccc3ncc(-c4cnco4)nc3c2)c1 [Compound 55]
BAF3-FGFR 3 (MIN IL3) 96 well pIC50 [1]: 5.65
BAF3-FGFR 3 (MIN IL3) 384 well pIC50 [1]: ~5.25
BAF3-KDR (MIN IL3) 96 well pIC50 [3]: <5
BAF3-KDR (MIN IL3) 384 well pIC50 [3]: <5
IC50 [5]: > 10 µM

COc1cc(OC)cc(N(CC2CC2)c2ccc3ncc(Nc4cnn(C)c4)nc3c2)c1 [Compound 61]
IC50 [2, 6]: > 10 µM
IC50 [2, 7]: 3.98 µM
BAF3-KDR (MIN IL3) 384 well pIC50 [3]: <5
IC50 [4, 9]: > 10 µM
IC50 [5]: 6.76 µM

COc1cc(OC)cc(N(CC2CC2)c2ccc3ncc(-n4ccc(C)n4)nc3c2)c1 [Compound 31]
BAF3-FGFR 3 (MIN IL3) 96 well pIC50 [1]: <5
BAF3-FGFR 3 (MIN IL3) 384 well pIC50 [1]: <5
BAF3-KDR (MIN IL3) 384 well pIC50 [3]: <5
IC50 [5]: > 10 µM

COc1cc(OC)cc(N(CC2CC2)c2ccc3ncc(-n4nccc4C)nc3c2)c1 [Compound 62]
BAF3-FGFR 3 (MIN IL3) 96 well pIC50 [1]: <5
BAF3-FGFR 3 (MIN IL3) 384 well pIC50 [1]: <5
BAF3-KDR (MIN IL3) 384 well pIC50 [3]: <5
IC50 [5]: > 10 µM
